Reference: paper PMC7502707, “Characterization and validation of a preventative therapy for hypertrophic cardiomyopathy in a murine model of the disease” (Proceedings of the National Academy of Sciences of the …, 2020)

How the values were obtained:
[1] = biological target: T1, cardiac L-type calcium channel (ICa-L) (Mus musculus, UniProt Q01815); experiment: Whole-cell patch-clamp of ICa-L currents in ventricular myocytes; type: cell-based; conditions: cTnI-G203S myocytes, in vitro 1 μM peptide
T1 construct: measure changes in ICa-L currents ([13]), and stimulate calcium transients in intact ventricular myocytes; endogenous in cells; host or cells: ventricular myocytes isolated from wt (human cTnI transgene) and cTnI-G203S mice
Description: (§1) The whole-cell configuration of the patch-clamp technique was used to measure changes in ICa-L currents ([13]), and stimulate calcium transients in intact ventricular myocytes. Detailed methods are provided in SI Appendix.
(§2) Supporting Materials and Methods
(§3) Isolation of ventricular myocytes
(§4) Myocytes were isolated from wt and cTnI-G203S mice. Animals were anesthetized with pentobarbitone sodium (240 mg/kg) via intraperitoneal injection prior to excision of the heart. Cells were isolated as previously described (1-3). Mouse hearts were excised, cannulated onto a Langendorff apparatus via the aorta, and perfused with Krebs-Henseleit Buffer (KHB) containing […]
(§5) O2/CO2 at 37°C) for 4 min at 37°C. […]
(§6) The whole-cell configuration of the patch-clamp technique was used to measure changes in ICa-L currents (4), and stimulate calcium transients in intact ventricular myocytes. […] Currents were measured in extracellular modified Tyrode’s solution containing (in mM): NaCl 140, CsCl 5.4, CaCl2 2.5, MgCl2 0.5, HEPES 5.5 and glucose 11 (pH adjusted to 7.6 with NaOH). Macroscopic currents were recorded using an Axopatch 200B voltage-clamp amplifier (Molecular Devices) with a Digidata 1440A interface and pClamp10.5 software (Molecular Devices). […] The time course of changes in Ca2+ conductance were monitored by applying a 100 ms test pulse to 10 mV once every 10 seconds. […]

[2] = system: cTnI-G203S cardiac myocytes; experiment: Calcium transients in Fura-2 loaded myocytes; type: cell-based, mouse; conditions: in vitro 1 μM peptide
Description: as §1, §2, §3, §4, §5, §6

Sequence: QQLEEDLKGYLDWITQAE [AID-TAT]
- ICa-L current density [1]: no significant alteration
- ICa-L inactivation rate (tau) ([1]; 37 °C): restored ICa-L inactivation rate to wt levels
- cellular calcium handling (calcium transients, Fura-2) [2]: no significant alteration
